The values below come from patent publication US9056067B2, “Pharmaceutical composition for enhancing immunity, and extract of Poria” (Sinphar Pharmaceutical Co., Ltd., priority 2003, dated 2015).

Each structure is given as a SMILES string.

One test relates to spleen cells. The test is described as follows: Spleen cell growth (MTT assay) after oral administration. The class given is in vivo, mice. As to the method: BALB/c male mice, 6-8 weeks old, were used throughout the experiment. The animals were purchased from National Laboratory Animal Center, Taipei, Taiwan. The mice were housed in the Individual Ventilation Cage System, which provided an environment of Specific Pyrogen-Free. The facilities had 12-h day/night rhythm, 24-26° C. and 30-70% humidity in air. Mice were fed autoclaved water and rodent chow, and the bedding was sterilized by autoclave also. The feedstock purchased from animal center of National Taiwan University composed of crude proteins (>23.0%), crude fat (>4.5%), crude fiber (<6.0%), ash (<8.0%), added minerals (<3.0%) and water (<12%). After transport, the mice were allowed to rest for two weeks before the experiments were started.
(§1) […] […] The control group was the mice feeding with an equal volume of saline (0.85% of NaCl). Mice were sacrificed at day five, and both the serum and spleen cells were collected. The sera were subsequently used to measure the concentration of IgG, IgM and IgA. The spleen cells were plated onto a 100 mm diameter culture plate and incubated at 37° C. for three hours. The non-adherent cells containing T-lymphocytes, B-lymphocytes and NK cells were collected and properly diluted as described in each assay.
The dry powder of PCM, PCM-K1, K-2, K-3 and K4 were suspended in sterile water, followed by sonication to break down the large particle. The suspension of fine particles was used to feed the animals.
(§2) The mouse to be sacrificed was cervical dislocated and sterilized with 70% ethanol. The cardiac punctuation was performed first to withdraw the blood. After the haemagglutination, the blood sample was subjected to centrifugation and the serum was collect. For isolation of spleen cells, the peritoneum was opened to remove the spleen. The fresh spleen was transferred to a culture plate containing 10 ml of RPMI-1640 culture medium. The spleen was then ground over a fine mesh to release the spleen cells. The spleen cells suspending in the medium were then removed and transferred to a 50-ml conical centrifuge tube. The tube was subjected to centrifugation at 1300 rpm for 10 min. The supernatant was discarded and the pellet was re-suspended in 1 ml of cold RBC lysing buffer containing EDTA-NH4Cl. The cells were incubated at room temperature for 10 min, followed by washing the cells three times with culture medium by centrifugation. The spleen cells were plated onto a 100 mm diameter culture plate and incubated at 37° C. for three hours. The non-adherent cells containing T-lymphocytes, B-lymphocytes and NK cells were collected and properly diluted as described in each assay.
MTT assay is the method routinely used for estimating the viable cell number and viability of the cultured cells. The basic principle is that the only mitochondria in a viable cells contain biologically activated oxido-reductive enzymes. The enzymes interact with MTT reagents to convert the chemical into a relatively insoluble blue crystal. The crystal is then solubilized in an acidic isopropanol and the absorbence at 570 nm in each well was read using an ELISA reader (EL311, BioTek, VT). Briefly, the spleen cells suspended in a medium containing RPMI 1640 supplemented with 10% fetal bovine serum (FBS), 2 mM L-glutamine, antibiotics and 1 μg/ml concanavalin A (Con A) were cultured in the 96-well flat-bottom plate (5×10^5 cells/100 μl/well) for 5 days. MTT assay was performed at day 3, 4 and 5. MTT tetrazolium (3-(4-5-dimethylthiazol-2-yl)-2,5-diphenyltertrazolium bromide) (5 mg/ml in phosphate-buffered saline) (Sigma Chemical, St. Louis, Mo.) was added to the spleen cells (20 μl MTT per 100 μl cells), and plates were incubated at 37° C. for 4 h. Acid-isopropanol (100 μl of 0.04 NHCL in isopropanol) was added to all wells and mixed completely to dissolve the dark blue crystals. After 20 minutes at room temperature to ensure that all crystals were dissolved, the plates were read on an EIA reader at 570 nm.
Background: Tetrazolium dyes change colour on reduction, which living cells bring about.

In the next test the test system is IgG. The test can be described thus: Serum level of IgG (ELISA). It counts as in vivo, mice. On the procedure:
as §1, §2
An ELISA was performed in our study to measure the immunoglobulin concentration. Briefly, the spleen cells (5×10^5 cells/ml) were cultured in a medium containing RPMI 1640 supplemented with 10% fetal bovine serum (FBS), 2 mM L-glutamine, antibiotics and 5 μg/ml lipopolysaccharide (LPS; 1 μg/10^5 cells) for 5 days. LPS is a polyclonal activator of B lymphocyte. Culture spleen cell supernatants were collected at day 3, 4 and 5. IgA, IgG and IgM concentrations were measured using a sandwich ELISA technique.
A 96-well microtiter plate (Nunc-Immuno Plate, MaxiSorp, Nunc, Denmark) was precoated with 100 ng/well of capture antibodies at 4° C. overnight. The capture antibody was a rabbit anti-mouse IgG+IgA+IgM antibody (Zymed Laboratory, CA). The plate was washed with PBS-0.05% Tween 20 solution and blocked with PBS-1% gelatin. After the blocking, the properly diluted samples (1/10^5 diluted) and standard IgG ranged from 0.25 μg/ml to 0.039 μg/ml were added (100 μl/well). The plate was then incubated at 37° C. for 2 h. At the end of incubation, HRP-conjugated goat anti-mouse IgG (1:2,000 diluted; anti-whole IgG molecule; Zymed Laboratory, CA) was added (100 μl/well). After 1 h of incubation at 37° C., the color was developed using a substrate solution containing 0.1 M citrate buffer, pH 4.5, 0.03% H2O2 and 0.1% of o-phenylenediamine. The absorbence at 490 nm in each well was read using an ELISA reader (EL311, BioTek, VT), and the data was analyzed using log-logit model.
In general terms: ELISA stands for enzyme-linked immunosorbent assay.

The mark [1] stands for this setting: oral 10 mg/kg/day for four days.
The mark [2] stands for this setting: oral 20 mg/kg/day for four days.

As for `C=C(CC[C@@H](C(=O)O)[C@H]1[C@H](O)C[C@@]2(C)C3=CC[C@H]4C(C)(C)C(=O)CC[C@]4(C)C3=CC[C@]12C)C(C)C` [K3], the entries for the “Spleen cell growth, absorbance at 570 nm (MTT assay), incubation day 3” value in the test with spleen cells (oral 5 mg/kg/day for four days), with spleen cells (setting [1]) and in the test with spleen cells (setting [2]) were 1.154 ± 0.172, 1.020 ± 0.090 and 1.103 ± 0.081, respectively. Besides, the “Spleen cell growth, absorbance at 570 nm (MTT assay), incubation day 4” value in the test with spleen cells (oral 5 mg/kg/day for four days) came to 0.841 ± 0.160; in the test with spleen cells (setting [1]) it was 0.900 ± 0.193; in the test with spleen cells (setting [2]), 1.068 ± 0.132. Further, the “Spleen cell growth, absorbance at 570 nm (MTT assay), incubation day 5” value turned out to be 0.864 ± 0.194 with spleen cells (oral 5 mg/kg/day for four days), 0.957 ± 0.200 in the test on spleen cells (setting [1]) and 0.943 ± 0.159 in the test with spleen cells (setting [2]). Also, the “Serum immunoglobulin concentration IgG” value in the test with IgG (oral 5 mg/kg/day for four days) worked out at 1.32 ± 0.09 mg/mL; with IgG (setting [1]), 1.28 ± 0.13 mg/mL; in the test on IgG (setting [2]), 1.14 ± 0.11 mg/mL.

Take `C=C(CCC(C(=O)O)C1C(O)CC2(C)C3=CCC4C(C)(CCC(O)C4(C)C)C3=CCC12C)C(C)C` (stereo not drawn) [K4]: the “Spleen cell growth, absorbance at 570 nm (MTT assay), incubation day 3” value in the test with spleen cells (oral 5 mg/kg/day for four days) amounted to 0.949 ± 0.101; with spleen cells (setting [1]), 1.198 ± 0.101; in the test on spleen cells (setting [2]), 1.233 ± 0.040. Moreover, the figures for the “Spleen cell growth, absorbance at 570 nm (MTT assay), incubation day 4” value in the test with spleen cells (oral 5 mg/kg/day for four days), in the test on spleen cells (setting [1]) and in the test with spleen cells (setting [2]) were 0.981 ± 0.087, 1.273 ± 0.147 and 1.263 ± 0.041, respectively. Further, the “Spleen cell growth, absorbance at 570 nm (MTT assay), incubation day 5” value in the test on spleen cells (oral 5 mg/kg/day for four days) came to 0.862 ± 0.085; with spleen cells (setting [1]) it was 1.177 ± 0.078; with spleen cells (setting [2]), 1.061 ± 0.124. In addition, the “Serum immunoglobulin concentration IgG” value with IgG (oral 5 mg/kg/day for four days) worked out at 3.75 ± 0.18 mg/mL; in the test on IgG (setting [1]) it was 4.33 ± 0.29 mg/mL; with IgG (setting [2]), 4.18 ± 0.25 mg/mL.
